# Source: patent US20240043372A1, “SUBSTITUTED AROMATIC COMPOUNDS AND PHARMACEUTICAL COMPOSITIONS THEREOF” (PHARMACEUTIQUE INGENEW INC., priority 2020, published 2024)
# “Also recorded” adds a separate entry of the source.
# Key:
# [1] = system: PC-3 cells (human prostate cancer cells); assay: PC-3 cell proliferation (MTT); format: cell-based; conditions: 24 hours
# Procedure: Antiproliferative activity of representative compounds on cancer cells was also undertaken by using PC-3 cells (human prostate cancer cells). PC-3 cells were cultured for 24 hours in 96-well plates with or without Compounds or Positive Control (PCtrl: sodium 2-(2-hydroxy-3,5-dipentylphenyl)acetate) or Setogepram CAS No.: 1002101-19-0 from MedChemExpress LLC, USA) at various concentrations. The last four hours of incubation, 50 μl of a freshly made solution of MTT at 2 mg/ml in PBS were added. Cells were harvested, 150 μl of DMSO were added to solubilize the formazan crystal formed and the plates were read the plate at 570 nm.
# [2] = system: carboplatin-resistant PDX glioblastoma (GBM20-75); assay: Avatar CAM assay, patient-derived xenograft glioblastoma; format: in vivo, human; conditions: FIG. 3, PDX glioblastoma resistant to carboplatin
# Procedure: (§1) In this example, representative compounds of the present disclosure were tested for their respective effect on tumors using a model of Avatar Chick Chorioallantoic Membrane (CAM) assay. CAM assays have been widely used to study angiogenesis and tumor invasion of colorectal, prostate and brain cancers, as well as for studying patient-derived xenograft for potential personalized medicine.
# (§2) The present inventor has tested representative compounds from the present disclosure or a Positive Control (PCtrl: sodium 2-(2-hydroxy-3,5-dipentylphenyl)acetate) as per the following. Fertilized eggs from white leghorn chicken were used and incubated in an Ova-Easy egg incubator at 37° C. with 60% humidity. At day 3, eggs were cracked. At day 9, U87 (human glioblastoma) cell suspensions (1×10^6 cells), or Caki cells or patient-derived xenograph (glioblastoma fragment) were mixed (1:1) with growth factor reduced Matrigel™ in a total volume of 20 μl for cell lines and POX-patient fragments were placed directly on top of the CAM and were returned to the incubator. Intravenous injection at day 11 or topical administration (Day 11 to Day 16) with or without the compounds. At day 16, chick embryos were killed by decapitation. Tumours were removed and tumour volumes were calculated using the formula: (Dd^2/3).
# [3] = system: human renal carcinoma Caki cells; assay: Avatar CAM assay, Caki tumour; format: in vivo; conditions: for Anticancer Activity Caki: Avatar CAM, tumour volume at day 16, symbols X to XXXX not defined; for anticancer activity relative to Sorafenib: FIG. 2, Caki cells in CAM Avatar model
# Procedure: as §1, §2
# [4] = system: human glioblastoma U87; assay: Avatar CAM assay, U87 tumour; format: in vivo; conditions: for Anticancer Activity U87: Avatar CAM, tumour volume at day 16, symbols X to XXXX not defined
# Procedure: as §1, §2
# [5] = system: human fibrosarcoma HT1080 cell; assay: Avatar CAM assay, HT1080 tumour; format: in vivo; conditions: tumour volume at day 16, symbols X to XXXX not defined
# [6] = system: PDX-fragments from IPF lungs; assay: Avatar CAM model, PDX-IPF lung fragments (volume, Masson's trichrome); format: in vivo, human; conditions: for collagen deposition in the PDX-IPF fragment: FIG. 5, Masson's trichrome staining
# Procedure: Avatar CAM model was also used to determine the antifibrotic activity of the representative compounds. Briefly, fertilized eggs from white leghorn chicken were used and incubated in an Ova-Easy egg incubator at 37° C. with 60% humidity. At day 3, eggs were cracked. At day 9, PDX-fragments from IPF lungs were grafted on top of the CAM and were returned to the incubator. Treatment by intravenous injection of compounds was performed at day 11 and at day 16, chick embryos were killed by decapitation. IPF-PDX fragments were removed and volumes were calculated using the formula: (Dd^2/3). Fibrosis was determined by a Masson's trichrome staining.
SMILES,inhibition at 12.5 µM [1] [%],inhibition at 25 µM [1] [%],inhibition at 50 µM [1] [%],inhibition at 100 µM [1] [%],inhibition at 200 µM [1] [%],further results
"CCCCCc1cc(CCCCC)c(O)c(CC(=O)O)c1 [PCtrl, sodium 2-(2-hydroxy-3,5-dipentylphenyl)acetate, reference compound]",0,0,0,0,20,–
CCCCCc1cc(CCCCC)c(O)c(CC(N)=O)c1 [Representative Compound 1],0,0,0,0,0,–
CCCCCc1cc(CCO)c(O)c(CCCCC)c1 [Representative Compound 2],0,63.6,70,72.2,66.3,growth (volume) response of PDX glioblastoma to treatment [2]: does not respond; Anticancer Activity Caki [3]: XXXX; anticancer activity relative to Sorafenib [3]: reach the anticancer activity of Sorafenib; Anticancer Activity U87 [4]: XXX
CCCCCc1cc(CCO)c(N)c(CCCCC)c1 [Representative Compound 3],0,39.1,67.4,62.1,65.8,–
CCCCCc1cccc(CCO)c1 [Representative Compound 4],–,–,–,–,–,"Anticancer Activity HT1080 [5]: XXX; inhibition at 62.5 µM [1]: 26.1%; inhibition at 125 µM [1]: 30.3%; inhibition at 250 µM [1]: 74.2%; inhibition at 500 µM [1]: 72.9%; inhibition at 1000 µM [1]: 70.4%; Antifibrotic Activity PDX (IPF lungs) ([6]; Avatar CAM, reduction of volume growth of PDX-IPF fragments, symbols not defined): XXXX; volume of the PDX-IPF fragments ([6]; FIG. 4, intravenous injection at day 11, volume at day 16): reduces significantly the volume; collagen deposition in the PDX-IPF fragment [6]: reduce collagen deposition"
OCCc1cc(Cc2ccccc2)cc(Cc2ccccc2)c1 [Representative Compound 5],1.7,42.8,70.6,72.2,53,"Anticancer Activity HT1080 [5]: XXX; Anticancer Activity Caki [3]: XXXX; anticancer activity relative to Sorafenib [3]: reach the anticancer activity of Sorafenib; Anticancer Activity U87 [4]: XXXX; anticancer activity relative to carboplatin ([4]; FIG. 1, U87 in CAM Avatar model): reached the anticancer activity of carboplatin"
"CCCCCc1cccc(CC(=O)O)c1 [Setogepram, reference compound]",–,–,–,–,–,inhibition at 62.5 µM [1]: 16.8%; inhibition at 125 µM [1]: 5.7%; inhibition at 250 µM [1]: 10.4%; inhibition at 500 µM [1]: 0%; inhibition at 1000 µM [1]: 0%; collagen deposition in the PDX-IPF fragment [6]: reduce collagen deposition; also recorded: reduced the collagen deposition
"N.N.O=C([O-])C1(C(=O)[O-])CCC1.[Pt+2] [carboplatin, reference compound]",–,–,–,–,–,growth (volume) response of PDX glioblastoma to treatment [2]: effectively resistant
